Data: US7511145B2 (Genelabs Technologies, Inc., priority 2003, dated 2009)

Key:
HCV-NS5b = target: T1, HCV-NS5b (Hepatitis C virus genotype 1b, UniProt Q9WMX2); assay: HCV-NS5b enzyme assay (incorporation of radiolabeled UTP); assay type: biochemical; settings: for % inh@33 / inhibition at 33 µM: enzyme inhibition at compound concentration of 33 uM; for % inh@100: enzyme inhibition at compound concentration of 100 uM; for inhibition at 100 µM: read-out: % inh@100, enzyme inhibition at compound concentration of 100 uM
T1 construct: (His)6 (C); made in house; host or cells: XL-1 cells (E. coli), IPTG-inducible plasmid, nickel-NTA purification
In short: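 His6-tagged NS5b lacking the C-terminal 21 residues, expressed in XL-1 and Ni-NTA purified. Reaction at pH 7.5 with 5 mM MgCl2, 10 μM each NTP including [3H]-UTP and biotinylated HCV heteropolymeric template, 2 h at 37° C; SPA read-out; % inhibition at 100 and 33 uM versus no-compound control, background subtracted.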

[1] = cited from earlier work

Compound | inhibition at 33 µM (HCV-NS5b) [%] | inhibition at 100 µM (HCV-NS5b) [%] | also measured
O=C(c1ccc(-c2ccc(Cl)cc2)c(-c2ccc3cc(-c4nc5ccccc5n4C4CCCCC4)ccc3n2)c1)N1CCCC1 [Compound 540] |  |  | % inh@33 (HCV-NS5b): 91.13%; % inh@100 (HCV-NS5b): 95.05%
NC(=O)CC[C@H](NC(=O)c1ccc2c(c1)nc(-c1ccc3nc(-c4ccccc4)cnc3c1)n2C1CCCCC1)C(=O)O [Compound 541, 4-Carbamoyl-2-{[1-cyclohexyl-2-(2-phenyl-quinoxalin-6-yl)-1H-benzoimidazole-5-carbonyl]-amino}-butyric acid] | 76.1 | 98.1 | 
NC(=O)[C@H](Cc1ccccc1)NC(=O)c1ccc2cc(-c3nc4cc(C(=O)O)ccc4n3C3CCCCC3)ccc2n1 [Compound 542, 2-[2-(1-Carbamoyl-2-phenylethylcarbamoyl)quinolin-6-yl]-1-cyclohexyl-1H-benzimidazole-5-carboxylic acid] | 81.1 | 98.6 | 
COc1ccc(-c2ccc(Cl)cc2)c(-c2ccc3cc(-c4nc5cc(C(=O)O)ccc5n4C4CCC(C)CC4)ccc3n2)c1 (centres unmarked) [Compound 543, 2-[2-(4′-chloro-4-methoxy-biphen-2-yl)-quinolin-6-yl]-1-(4-methyl-cyclohexyl)-1H-benzoimidazole-5-carboxylic acid] | 102 | 102 | 
COc1ccc(-c2ccccc2F)c(-c2ccc3cc(-c4nc5cc(C(=O)O)ccc5n4C4CCCCC4)ccc3n2)c1 [Compound 544, 1-Cyclohexyl-2-[2-(2′-fluoro-4-methoxy-biphen-2-yl)-quinolin-6-yl]-1H-benzoimidazole-5-carboxylic acid] | 102 | 100 | 
COc1ccc(C2CCCCC2)c(-c2ccc3cc(-c4nc5cc(C(=O)O)ccc5n4C4CCCCC4)ccc3n2)c1 [Compound 545, 1-Cyclohexyl-2-[2-(2-cyclohexyl-5-methoxy-phenyl)-quinolin-6-yl]-1H-benzoimidazole-5-carboxylic acid] | 99.2 | 101 | 
CN(C(=O)c1ccc2cc(-c3nc4cc(C(=O)O)ccc4n3C3CCCCC3)ccc2n1)c1ccc(Cl)cc1 [Compound 546] | 95.3 | 102 | 
COc1ccc(-c2ccc(Cl)cc2)c(-c2ccc3cc(-c4nc5cc(C(=O)O)ccc5n4C4CCC(C)CC4)ccc3n2)c1 (centres unmarked) [Compound 547, 2-[2-(4′-chloro-4-methoxy-biphen-2-yl)-quinolin-6-yl]-1-(4-methyl-cyclohexyl)-1H-benzoimidazole-5-carboxylic acid] |  |  | % inh@33 (HCV-NS5b; 33 µM): 102.71%; % inh@100 (HCV-NS5b; 100 µM): 101.82%
COc1ccc(-c2ccccc2C)c(-c2ccc3cc(-c4nc5cc(C(=O)O)ccc5n4C4CCCCC4)ccc3n2)c1 [Compound 548] | 103 | 101 | 
O=C(O)c1ccc2c(c1)nc(-c1ccc3nc(-c4cc(C(=O)N5CCCC5)ccc4-c4ccc(F)cc4)ccc3c1)n2C1CCCCC1 [Compound 549, 1-Cyclohexyl-2-{2-[4′-fluoro-4-(pyrrolidine-1-carbonyl)biphen-2-yl]quinolin-6-yl}-1H-benzimidazole-5-carboxylic acid] | 100 | 102 | 
CC(C)N(C(=O)c1ccc2cc(-c3nc4cc(C(=O)O)ccc4n3C3CCCCC3)ccc2n1)c1ccc(Cl)cc1 [Compound 550, 2-{2-[(4-Chlorophenyl)isopropylcarbamoyl]quinolin-6-yl}-1-cyclohexyl-1H-benzimidazole-5-carboxylic acid] | 99.1 | 102 | 
O=C(O)c1ccc2c(c1)nc(-c1ccc3nc(C(=O)N(c4ccc(Cl)cc4)C4CCCCC4)ccc3c1)n2C1CCCCC1 [Compound 551, 2-{2-[(4-Chlorophenyl)cyclohexylcarbamoyl]quinolin-6-yl}-1-cyclohexyl-1H-benzimidazole-5-carboxylic acid] | 87.5 | 95.7 | 
COc1ccc(-c2ccccc2OC)c(-c2ccc3cc(-c4nc5cc(C(=O)O)ccc5n4C4CCCCC4)ccc3n2)c1 [Compound 552, 1-Cyclohexyl-2-[2-(4,2′-dimethoxy-biphen-2-yl)-quinolin-6-yl]-1H-benzoimidazole-5-carboxylic acid] | 101 | 101 | 
COc1ccc(-c2ccc(Cl)cc2)c(-c2ccc3cc(-c4nc5cc(C(=O)O)ccc5n4C4CC(C)CC(C)(C)C4)ccc3n2)c1 (centres unmarked) [Compound 555, 2-[2-(4′-chloro-4-methoxy-biphen-2-yl)-quinolin-6-yl]-1-(3,3,5-trimethyl-cyclohexyl)-1H-benzoimidazole-5-carboxylic acid] | 101 | 101 | 
COc1ccc(-c2ccc(Cl)cc2)c(-c2ccc3cc(-c4nc5cc(C(=O)O)ccc5n4C4CCCCC4C)ccc3n2)c1 (centres unmarked) [Compound 556, 2-[2-(4′-Chloro-4-methoxy-biphen-2-yl)-quinolin-6-yl]-1-(2-methyl-cyclohexyl)-1H-benzoimidazole-5-carboxylic acid] | 103 | 102 | 
CCc1ccc(-c2ccc(OC)cc2-c2ccc3cc(-c4nc5cc(C(=O)O)ccc5n4C4CCCCC4)ccc3n2)cc1 [Compound 557, 1-Cyclohexyl-2-[2-(4′-ethyl-4-methoxy-biphen-2-yl)-quinolin-6-yl]-1H-benzoimidazole-5-carboxylic acid] | 103 | 101 | 
COc1ccc(-c2ccc(Cl)cc2)c(-c2ccc3cc(-c4nc5cc(C(=O)O)ccc5n4C4CCNCC4)ccc3n2)c1 [Compound 558, 2-[2-(4′-Chloro-4-methoxy-biphen-2-yl)-quinolin-6-yl]-1-piperidin-4-yl-1H-benzoimidazole-5-carboxylic acid] | 32.5 | 77.3 | 
COc1ccc(-c2ccc(Cl)cc2)c(-c2ccc3cc(-c4nc5cc(C(=O)O)ccc5n4Cc4ccccc4)ccc3n2)c1 [Compound 559, 1-Benzyl-2-[2-(4′-chloro-4-methoxy-biphen-2-yl)-quinolin-6-yl]-1H-benzoimidazole-5-carboxylic acid] | 101 | 101 | 
COc1ccc(-c2ccc(F)c(F)c2)c(-c2ccc3cc(-c4nc5cc(C(=O)O)ccc5n4C4CCCCC4)ccc3n2)c1 [Compound 560, 1-Cyclohexyl-2-[2-(3′,4′-difluoro-4-methoxy-biphen-2-yl)-quinolin-6-yl]-1H-benzoimidazole-5-carboxylic acid] | 101 | 101 | 
COc1ccc(-c2cc(Cl)cc(Cl)c2)c(-c2ccc3cc(-c4nc5cc(C(=O)O)ccc5n4C4CCCCC4)ccc3n2)c1 [Compound 562, 1-Cyclohexyl-2-[2-(3′,5′-dichloro-4-methoxy-biphen-2-yl)-quinolin-6-yl]-1H-benzoimidazole-5-carboxylic acid] | 102 | 101 | 
O=C(O)c1ccc2c(c1)nc(-c1ccc3nc(-c4cc(F)ccc4-c4ccc(Cl)cc4)ccc3c1)n2C1CCCCC1 [Compound 563, 2-[2-(4′-Chloro-4-fluoro-biphen-2-yl)-quinolin-6-yl]-1-cyclohexyl-1H-benzoimidazole-5-carboxylic acid] | 101 | 101 | 
CCC(CC)n1c(-c2ccc3nc(-c4cc(OC)ccc4-c4ccc(Cl)cc4)ccc3c2)nc2cc(C(=O)O)ccc21 [Compound 564, 2-[2-(4′-Chloro-4-methoxy-biphen-2-yl)-quinolin-6-yl]-1-(1-ethyl-propyl)-1H-benzoimidazole-5-carboxylic acid] | 102 | 101 | 
O=C(O)c1ccc2c(c1)nc(-c1ccc3nc(-c4cc5c(cc4-c4ccc(Cl)cc4)OCCCO5)ccc3c1)n2C1CCCCC1 [Compound 565, 2-{2-[8-(4-chloro-phenyl)-3,4-dihydro-2H-benzo[b][1,4]dioxepin-7-yl]-quinolin-6-yl}-1-cyclohexyl-1H-benzoimidazole-5-carboxylic acid] | 102 | 100 | 
COc1ccc(-c2ccc(Cl)cc2)c(-c2ccc3cc(-c4nc5cc(C(=O)O)ccc5n4CC4CCCO4)ccc3n2)c1 (centres unmarked) [Compound 566, 2-[2-(4′-chloro-4-methoxy-biphen-2-yl)-quinolin-6-yl]-1-(tetrahydrofuran-2-yl-methyl)-1H-benzoimidazole-5-carboxylic acid] | 99.2 | 100 | 
O=C(O)c1ccc2c(c1)nc(-c1ccc3nc(-c4cc(Cl)ccc4-c4ccc(Cl)cc4)ccc3c1)n2C1CCCCC1 [Compound 567, 1-cyclohexyl-2-[2-(4,4′-dichloro-biphen-2-yl)-quinolin-6-yl]-1H-benzoimidazole-5-carboxylic acid] | 101 | 97.7 | 
COc1ccc(-c2ccc(Cl)cc2)c(-c2ccc3cc(-c4nc5cc(C(=O)O)ccc5n4C4CC5CCC4C5)ccc3n2)c1 (centres unmarked) [Compound 568, 1-bicyclo[2.2.1]hept-2-yl-2-[2-(4′-chloro-4-methoxy-biphen-2-yl)-quinolin-6-yl]1H-benzoimidazole-5-carboxylic acid] | 101 | 100 | 
Nc1ccc(-c2ccc(Cl)cc2)c(-c2ccc3cc(-c4nc5cc(C(=O)O)ccc5n4C4CCCCC4)ccc3n2)c1 [Compound 569, 2-[2-(4-amino-4′-chloro-biphen-2-yl)-quinolin-6-yl]-1-cyclohexyl-1H-benzoimidazole-5-carboxylic acid] | 101 | 101 | 
NC(=O)c1ncn([C@@H]2O[C@H](CO)[C@@H](O)[C@H]2O)n1 [Ribavirin, ribavirin] |  |  | teratogenicity / embryotoxicity ([1]; human, in vivo): teratogenic and embryotoxic; patients with significant hemolysis ([1]; patients treated at currently recommended doses): 10-20%
